# Test results from patent US11590164B2, “Topical antimicrobial formulations containing monovalent copper ions and systems for generating monovalent copper ions” (priority 2016, dated 2023).
# Legend:
# [1] = system: Escherichia coli strain MG1655; test: Disc diffusion antibiotic sensitivity test; type: cell-based; details: for Estimate of the sterile area beyond the disk: aerobic, 37° C., 24 h incubation, 6 mm disk
# Protocol: 1. Introduction: • The antibacterial effect was measured by an agar disk diffusion method. Escherichia coli strain MG1655 was used as a model organism. Whatman's 6 mm disks were used. The incubation of Petri dishes (with disks) was done in aerobic conditions, at 37° C. After 24 h incubation, the radiuses of sterile zones on agar were measured.
# 2.1 Preparation of bacterial suspension • 100 μl of bacterial suspension (containing 10^4-10^5 bacterial cells per plate) was used for testing. Cells of E. coli MG1655 were grown overnight as a starter on LB (Luria broth) media at 37° C. with a shaker. After 12-18 hhours incubation, 100 μL suspension were added to 9.9 mL of fresh LB media. Bacterial cells designated for testing were grown in fresh LB at 37° C. with a shaker for 2-3 h to final OD (600 nm) 0.2-0.4. This cell suspension was diluted by a factor of 100 using 0.9% NaCl, and 100 μL of the diluted suspension was distributed on agar surface before adding a disk.
# 2.2 Preparation of Petri dishes • LB agar was prepared according to a standard procedure, autoclaved and stored afterwards up to 3 h at 55° C. The needed substances (like ascorbic acid) were added into agar before pouring into dishes. 15 ml agar was added to each 90 mm Petri dish. Dishes were dried for at least 1 h in a biosafety cabinet by sterile air flow.
# 2.3 Formulation application • To the preliminary dried dishes (a described in 2.2) a freshly prepared bacterial culture was added (as described in 2.1). Immediately after absorption of the suspension into the agar, a disk was placed at the center of the dish. In case where metallic copper was tested, it was placed first in the form of a small circular wire at the dish center and pressed into the agar, and covered by a disk afterwards. 10 μl of a Cu^2+ solution was placed on the disk.
# 2.4 Measurement of the sterile zone size • All dishes after 24 h incubation (as described in 2.1) were photographed and the images are analyzed. The absolute size of the sterile zones was estimated in comparison with the disk size (6 mm).
# The results were presented as sterile area in mm^2 (FIG. 5 and Table 2) or as radiuses in mm (FIGS. 7-10) of the sterile zones on agar.
# E. coli MG 1655 = test: Petri dish technique, LB agar with ascorbic acid and CuSO4 covered by oil; type: cell-based, Escherichia coli; details: for Vitality of E. coli MG 1655: 24 h
# Protocol: (§1) As control groups, bacteria were incubated under the same conditions without ascorbic acid, or without CuSO4. In this series of experiments ascorbic acid acted as the reducing agent according to the following reaction: 2Cu^2++ascorbic acid→2Cu^++dehydro ascorbic acid (2) The viability of bacteria was detected by the presence or absence of colonies.
# The experiment was repeated using a different reducing agent (ascorbic acid instead of metal copper with acetonitrile) and different technique of growing bacteria on Petri dishes with LB agar. The ascorbic acid embedded in the agar reduces copper as was shown in Equation 2.
# E. coli [2] = test: Syringes technique, anaerobic incubation of E. coli with copper ions (vitality / MIC); type: cell-based, Escherichia coli
# Protocol: (§2) Syringes technique: Bacteria cells were incubated at room temperature under anaerobic conditions in LB Bruce growth substance syringes. To ensure anaerobic conditions, Argon gas (UHP) was bubbled through a sterile filter into a syringe filled with a growth substance. Cu^1+ was formed in situ, the process was started with de-aerating the aqueous solutions containing a mixture of CuSO4 as the source for Cu^2+ ions, metallic copper and Acetonitrile as a stabilizing ligand, prior to microorganisms insertion, according to the following reaction:
# One must notice that each Cu^2+ results in two Cu^1+ ions.
# (§3) Reference bacteria were incubated under the same condition in a growth substance containing: Metallic copper (4×2×0.1 cm), Acetonitrile, CuSO4 or AgNO3.
# (§4) Bacteria count was measured at time intervals using a series of dilutions, and colonies count on LB Agar was incubated at 37° C.
# The vitality of Escherichia coli, Staphylococcus aureus (bacteria) and Saccharomyces cerevisiae (yeast) was tested in anaerobic conditions using syringe technique and Petri dish technique.
# The MIC of Cu^1+ and Cu^2+ was measured by using four syringes with decreasing concentration of the copper ions from 8 to 2 mM.
# MIC of Cu^1+ found to be around 4 mM where the MIC of Cu^2+ was between 6 mM and 8 mM.
# E. coli [3] = test: Kinetics of bactericidal effect (time-kill curve), syringes technique; type: cell-based, Escherichia coli
# Protocol: as §2, §3, §4
# Because of the chemical similarity of copper and silver as well as their clinical use as antibacterial agents, their antibacterial effect over time was compared. The survival of test bacteria in each syringe was sampled in time intervals of 1, 20, 40 and 85 hours from inoculation. Time-kill curve was constructed by plotting the viable cell count of bacteria (Δ log 10 cfu/ml) over time (FIG. 1).
# Saccharomyces cerevisiae = test: Viable cell count over time, syringes technique; type: cell-based
# Staphylococcus aureus = test: Growth kinetics in anaerobic conditions, syringe technique; type: cell-based
# Protocol: as §2, §3, §4
# When comparing with FIG. 2 it seems that the difference between the effect of Cu^1+ and Cu^2+ is more pronounced in gram (+) bacteria than in gram(−).
# S. aureus = test: Petri dish technique, LB agar with ascorbic acid; type: cell-based, Staphylococcus aureus; details: 24 h
# Protocol: as §1, with “Petri dish technique: Bacteria were incubated at 37° C. in Petri dish with LB Agar containing 20 mM ascorbic acid and 0.05-3.5 mM CuSO4 covered by oil, to prevent air oxygen penetration. As” for “As”
# The MIC of Cu^1+ is measured by using Petri dishes with LB agar. The ascorbic acid embedded in the agar reduces copper as was shown in Equation 2.
# [4] = 4 mM ion, 24 h incubation, 0.5% (v/v) acetonitrile
molecule,measurement,setting,value
copper(II) gluconate [copper (II) gluconate],minimal recommended concentration of copper (II) gluconate,[1]; in emulsifying base ointment with ascorbyl palmitate and 2% copper powder,1.25 % w/w
O=S(=O)([O-])[O-].[Cu+2] [CuSO4],Vitality of E. coli MG 1655,"E. coli MG 1655; Ascorbic acid 0 mM, CuSO4 3.0 mM","++ (a fully covered plate, estimated as 2×10^7 cfu/ml)"
same,Vitality of E. coli MG 1655,"E. coli MG 1655; Ascorbic acid 0 mM, CuSO4 4.0 mM",−
same,Vitality of E. coli MG 1655,"E. coli MG 1655; Ascorbic acid 20 mM, CuSO4 0.01 mM","++ (a fully covered plate, estimated as 2×10^7 cfu/ml)"
same,Vitality of E. coli MG 1655,"E. coli MG 1655; Ascorbic acid 20 mM, CuSO4 0.05 mM",−
CC#N [acetonitrile],minimal effective concentration as stabilizing ligand,"E. coli [2]; preliminary tests, equals 0.5% V/V",0.1 M
"[Ag+] [Ag^1+, reference compound]",viable cells,E. coli [3]; after 85 hours,no viable cells were found
same,Estimate of the sterile area beyond the disk,[1],27.1 mm^2
"O=C1O[C@H]([C@@H](O)CO)C(O)=C1O [Ascorbic acid, ascorbic acid, reference compound]",Vitality of E. coli MG 1655,"E. coli MG 1655; Ascorbic acid 20 mM, CuSO4 0 mM","++ (a fully covered plate, estimated as 2×10^7 cfu/ml)"
[Cu+] [Cu^1+],susceptibility of the yeast compared with the bacteria studied,Saccharomyces cerevisiae,more susceptible
same,antibacterial potency compared with 8 mM and 16 mM Ag^+,"E. coli [3]; 8 mM, 1 h incubation",more potent antibacterial agent
same,viable bacteria cells,E. coli [3]; 20 hours after inoculation,no viable bacteria cell was found at all
same,reduction of the initial bacteria inoculums,"E. coli [3]; after 1 h of incubation, anaerobic",7 log cfu/ml
same,live bacteria remaining in the syringe,E. coli [3]; after 85 hours,1 log cfu/ml
same,bactericidal effect of reduced copper ions relative to Cu^2+,E. coli MG 1655; 24 h after incubation,eight times higher
same,presence or absence of E. coli colonies,"E. coli [2]; 2 mM ion, 24 h incubation, 0.5% (v/v) acetonitrile","++ (a fully covered plate, estimated as 2×10^7 cfu/ml)"
same,number of colonies on the plate,E. coli [2]; [4],107 colonies
same,presence or absence of E. coli colonies,E. coli [2]; [4],"++ (a fully covered plate, estimated as 2×10^7 cfu/ml)"
same,presence or absence of E. coli colonies,"E. coli [2]; 6 mM ion, 24 h incubation, 0.5% (v/v) acetonitrile",−
same,presence or absence of E. coli colonies,"E. coli [2]; 6 mM ion, 24 h incubation, 0.5% (v/v) acetonitrile, listed as Cu^+2","+ (partially covered plate but still uncountable, estimated as 1×10^4 cfu/ml)"
same,presence or absence of E. coli colonies,"E. coli [2]; 8 mM ion, 24 h incubation, 0.5% (v/v) acetonitrile",−
same,MIC,"E. coli [2]; 24 h incubation, 0.5% (v/v) acetonitrile, syringes",around 4 mM
same,bacteriostatic effect,Staphylococcus aureus,very little bacteriostatic effect
same,incubation time to depletion of bacterial count,Staphylococcus aureus,≤ 1 h
same,S. aureus vitality,S. aureus; 0.05 mM with ascorbic acid 20 mM,"++ (a fully covered plate, estimated as 2×10^7 cfu/ml)"
same,"S. aureus vitality, number of colonies",S. aureus; 0.1 mM with ascorbic acid 20 mM,45
same,S. aureus vitality,S. aureus; 0.3 mM with ascorbic acid 20 mM,−
same,Estimate of the sterile area beyond the disk,[1],359.3 mm^2
same,Estimate of the sterile area beyond the disk,[1]; listed as Cu^2+,25.9 mm^2
same,Estimate of the sterile area beyond the disk,[1]; listed as Cu^+2,25.9 mm^2
same,improvement in the biocidal effect compared with Ag^1+ and Cu^2+,[1]; disk diffusion method,more than 10 times
